Test results reported in US6727244B2, “Mammalian metabolites of a tachykinin receptor antagonist” (Merck & Co., Inc., priority 2000, dated 2004).

Tests used:
[1] = molecular target: T1, recombinant human CYP isozymes (Homo sapiens, UniProt P08684); assay: metabolism by microsomes containing recombinant human CYP isozymes; assay type: in vitro ADME; settings: parent to M-1 (N-dealkylation); M-1 to M-2 (oxidation); M-3 to M-4 (hydroxylation); M-2 to M-5 (conversion)
T1 construct: host or cells: Baculovirus-infected sf21 insect cells (microsomes)
Experimental: Hepatocytes were harvested from male Sprague-Dawley rat livers or human livers and cultured on a matrigel support and treated with 0.1 μM dexamethasone or 50 μM rifampicin, respectively, for 48 hr prior to the addition of the test compounds. A 2.5 mM stock solution of [^14C]2-(R)-(1-(R)-(3,5-bis(trifluoromethyl)-phenyl)ethoxy)-3-(S)-(4-fluoro)phenyl-4-(3-(5-oxo-1H,4H-1,2,4-triazolo)methylmorpholine, [^14C]M-1 or [^14C]M-2 in DMSO was added to the plates such that the final concentration of test compound was 25 μM and DMSO was 1% (v/v). The cultures were incubated for 4, 6 or 24 hr for rat hepatocytes and 48 hr for human hepatocytes. The incubation mixtures (500 μL) contained 10 μM of test compound, 100 mM phosphate buffer pH 7.4, NADPH-regenerating system, microsomes containing expressed CYP isoforms (CYP1A2, CYP2A6, CYP2B6, CYP2C8, CYP2C9, CYP2C19, CYP2D6, CYP2E1 or CYP3A4) and cytochrome P-450 reductase. The reactions were initiated by adding NADP and proceeded at 37° C. for 15-45 min. Acetonitrile extracts from microsomal and hepatocyte incubates were dissolved in 50% aqueous methanol and fractionated by HPLC. The separation was accomplished on a Zorbax RX C8 analytical column (5 μm, 4.6×250 mm). The mobile phase consisted of solvent A (10 mM ammonium acetate in water) and solvent B (7.3 mM ammonium acetate in 92.7% acetonitrile and 7.3% methanol. The column was eluted by a linear gradient from 35 to 80% B over 40 min at a flow rate of 1 mL/min. Fractions of major metabolites were subjected to LC-MS/MS analysis. Further purification was done using isocratic conditions prior to NMR analysis.
The incubation mixtures (500 μL) contained 10 or 25 μM of test compounds, 100 mM phosphate buffer pH 7.4, NADPH-regenerating system (5 mM glucose-6-phosphate, 1 mM NADP and 0.7 I.U/mL glucose 6-phosphate dehydrogenase), 0.5 to 2 mg/mL liver microsomal protein prepared from rats and humans or microsomes from Baculovirus-infected sf21 cells containing 20 to 200 pmol expressed CYP isoforms (CYP1A2, CYP2A6, CYP2B6, CYP2C8, CYP2C9, CYP2C19, CYP2D6, CYP2E1 or CYP3A4) and cytochrome P450 reductase. Stock solutions of the substrates in methanol were made such that final concentration of methanol in the reaction mixture was 3%. The reactions were initiated by adding 50 μL of 10 mM NADP and proceeded at 37° C. for 15-45 min. After incubation, the reactions were terminated by the addition of four volumes of acetonitrile. The suspensions were mixed vigorously and centrifuged at 3000×g for 5 min. The supernatants were dried and redissolved in 50% methanol for HPLC analysis using method A described below.

[2] = metabolism in primary cultures of rat hepatocytes; assay type: in vitro ADME; settings: after 6 hr
Experimental: Hepatocytes were harvested from male Sprague-Dawley rat livers or human livers and cultured on a matrigel support and treated with 0.1 μM dexamethasone or 50 μM rifampicin, respectively, for 48 hr prior to the addition of the test compounds. A 2.5 mM stock solution of [^14C]2-(R)-(1-(R)-(3,5-bis(trifluoromethyl)-phenyl)ethoxy)-3-(S)-(4-fluoro)phenyl-4-(3-(5-oxo-1H,4H-1,2,4-triazolo)methylmorpholine, [^14C]M-1 or [^14C]M-2 in DMSO was added to the plates such that the final concentration of test compound was 25 μM and DMSO was 1% (v/v). The cultures were incubated for 4, 6 or 24 hr for rat hepatocytes and 48 hr for human hepatocytes. The incubation mixtures (500 μL) contained 10 μM of test compound, 100 mM phosphate buffer pH 7.4, NADPH-regenerating system, microsomes containing expressed CYP isoforms (CYP1A2, CYP2A6, CYP2B6, CYP2C8, CYP2C9, CYP2C19, CYP2D6, CYP2E1 or CYP3A4) and cytochrome P-450 reductase. The reactions were initiated by adding NADP and proceeded at 37° C. for 15-45 min. […]
Method A was conducted on a Shimadzu HPLC system (Shimadzu Scientific Instruments Inc., Columbia Md.). The parent compounds and their metabolites were monitored directly using a radiometric detector (INUS Systems Inc. Tampa, Fla.) and Ultima-Flow M (Packard Instrument Co., Meridan Conn.) as scintillant at a flow rate of 3 mL/min. […]

T1 sequence (P08684 2-503 limits assumed): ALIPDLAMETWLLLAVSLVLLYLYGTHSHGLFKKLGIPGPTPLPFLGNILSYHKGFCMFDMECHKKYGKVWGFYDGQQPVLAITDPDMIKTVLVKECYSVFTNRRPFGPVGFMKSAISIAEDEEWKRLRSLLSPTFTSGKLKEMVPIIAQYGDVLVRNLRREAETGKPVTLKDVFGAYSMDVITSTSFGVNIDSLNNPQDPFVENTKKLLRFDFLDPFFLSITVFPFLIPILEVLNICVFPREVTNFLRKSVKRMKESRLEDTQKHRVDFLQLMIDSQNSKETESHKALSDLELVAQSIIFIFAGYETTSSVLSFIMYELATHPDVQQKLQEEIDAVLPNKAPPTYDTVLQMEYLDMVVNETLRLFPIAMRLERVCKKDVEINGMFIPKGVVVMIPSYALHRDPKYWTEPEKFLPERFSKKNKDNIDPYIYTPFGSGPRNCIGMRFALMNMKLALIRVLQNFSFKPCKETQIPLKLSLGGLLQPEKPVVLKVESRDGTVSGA

- CYP isozyme primarily responsible for the metabolic step [1]: CYP3A4
- metabolism in rat hepatocyte cultures [2]: extensively metabolized
Compound: C[C@@H](O[C@H]1OCCN[C@H]1c1ccc(F)cc1)c1cc(C(F)(F)F)cc(C(F)(F)F)c1 [Metabolite M-1, (2R,3S)-2-[(1R)-1-[3,5-bis(trifluoromethyl)phenyl]ethoxy]-3-(4-fluorophenyl)morpholine]
